“And” between values parts separate entries of the source, which are not always exact repeats. Identical values can stand only once.
Experiments:
[1] = molecular target: T1, FimH-CRD (Escherichia coli, UniProt P08191); assay: Competitive binding assay by fluorescence polarization, assay 1 (compounds prepared by manual dilution); set-up: species or system E. coli
T1 construct: The first 177 amino acids of the FimH protein are expressed as a fusion protein; thrombin tag (printed as 'fusion protein with thrombin') (cleaved yes); made in house; host or cells: bacteria (pET21b plasmid)
T1 sequence (P08191 22-177): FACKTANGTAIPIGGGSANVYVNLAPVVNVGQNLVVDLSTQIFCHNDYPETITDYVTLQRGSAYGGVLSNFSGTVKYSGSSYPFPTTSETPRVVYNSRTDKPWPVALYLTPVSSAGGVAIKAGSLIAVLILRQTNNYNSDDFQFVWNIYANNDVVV
Procedure, shortened: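 FimH-CRD (residues 1-177, tag removed) at 60 nM competed against 5 nM Alexa 647 mannoside probe in 50 mM Tris-Cl pH 7.0, 100 mM NaCl, 1 mM EDTA, 5 mM β-mercaptoethanol, 0.05% BSA, 2.5% DMSO; 5 h, room temperature, dark. Compounds 0.4 nM-75 μM final, 12-point 3-fold, duplicate; Kd from fluorescence polarization displacement curves. Assay 1: manual dilution; assay 2: robotic dilution, plates frozen/thawed.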

[2] = molecular target: T1, FimH-CRD; assay: Competitive binding assay by fluorescence polarization, assay 2 (compounds prepared by a robotics system, plates frozen and thawed); set-up: species or system E. coli; conditions: Assay 2 Kd, 5 nM Alexa 647 mannoside probe, 60 nM FimH-CRD, replicate values in one cell
Experimental: The first 177 amino acids of the FimH protein are expressed as a fusion protein with thrombin in a pET21b plasmid in bacteria. This FimH protein sequence contains the carbohydrate recognition domain (CRD) and shall be termed FimH-CRD. Following bacterial expression of the protein, the FimH-CRD protein is purified to homogeneity and the thrombin tag removed by protease cleavage. A competitive binding assay by fluorescence polarization is performed using 5 nM of the Alexa 647 mannoside probe and 60 nM of the FimH-CRD. The samples are assayed in a low volume 384 well microtiter plate in a final volume of 20 μl. The final assay buffer conditions are the following, 50 mM Tris-Cl, ph 7.0, 100 mM NaCl, 1 mM EDTA, 5 mM β-mercaptoethanol, 0.05% BSA and 2.5% DMSO. Two assays are performed for FimH, termed assay 1 or assay 2. The assay conditions are the same for both assays except the following: assay 1 has compounds prepared by manual dilution in a serial dilution factor with 12-point dose response while assay 2 has compounds prepared by a robotics system also through a serial dilution factor (12 point dose response) and initially prepared in duplicate in 384 well-Corning polypropylene round bottom plates. The assay 2 plates have compound which is then frozen and must be thawed prior to use. Initially the Alexa 647 probe and the FimH-CRD are added to the assay buffer and then 0.5 μl of test compound (assay 1 or 2) between 0.4 nM to 75 μM final concentration are added (12 point titration with 3-fold serial dilution). Control wells for the Alexa 647 probe are prepared with the same conditions except for the addition of the FimH-CRD protein. Plates are then incubated for 5 hrs at room temperature in the dark and under humid conditions to prevent drying. Plates are read using the SpectraMax Paradigm multi-mode plate reader and the appropriate fluorescent polarization detection cartridge (Alexa-647).
Alexa 647 mannoside probe is prepared using the similar procedure reported for FAM mannoside (Han, Z. et. al., 2010, J. Med. Chem., 53, 4779) and is described in the scheme below.
To a blue colored stirred solution of (2S,3S,4S,5S,6R)-2-(4-aminobutoxy)-6-(hydroxymethyl)tetrahydropyran-3,4,5-triol (2.21 mg, 0.009 mmol) and the (2E)-2-[(2E,4E)-5-[3,3-dimethyl-5-sulfonato-1-(3-sulfonatopropyl)indol-1-ium-2-yl]penta-2,4-dienylidene]-3-[6-(2,5-dioxopyrrolidin-1-yl)oxy-6-oxo-hexyl]-3-methyl-1-(3-sulfonatopropyl)indoline-5-sulfonate (Potassium Ion (3)) (4.9 mg, 0.0044 mmol) in DMF (44 μL) is added Et3N (5.4 mg, 7.0 μL, 0.053 mmol) at RT. The solution is stirred at room temperature over night, concentrated, dissolved in water and purified on 12 g C-18 silica gel cartridge on Isolera system using acetonitrile in water (0 to 40%, 10 CV) and followed by lyophilization to afford Alexa 647 mannoside probe (3.3 mg, 34%) as deep blue solid.
The Kd values of the compounds are determined from dose response curves using twelve concentrations per compound in duplicate. Curves are fitted to data points using Fluorescence Polarization competitive displacement analysis, and Kds are interpolated from the resulting curves using GraphPad Prism software, version […] (GraphPad software Inc., San Diego, Calif., USA).

[3] = test system: bacterial strain LF82 binding to the glycoprotein BSA-(Mannose)3; assay: Bacterial Binding Assay (BBA); assay type: cell-based, Escherichia coli; conditions: read-out: Bacterial Binding Assay IC50, LF82/Luciferase strain binding to BSA-(Man)3 coated plates, luminescence
Procedure, shortened: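 Inhibition of LF82/luciferase E. coli adhesion is read as luminescence after washing off unbound cells. Compound and bacteria (10^7 per well) are co-incubated 40-75 min at room temperature on wells coated with 0.5-2 μg/mL BSA-(Man)3, with BSA-only wells as background; IC50 values derived.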

[4] = Assay 1 Kd, 5 nM Alexa 647 mannoside probe, 60 nM FimH-CRD, replicate values in one cell
[5] = read-out: Assay 1 Kd, 5 nM Alexa 647 mannoside probe, 60 nM FimH-CRD, replicate values in one cell

OC[C@H]1O[C@H](c2ccc(-c3cccc([C@H]4O[C@H](CO)[C@@H](O)[C@H](O)[C@@H]4O)c3)cc2)[C@@H](O)[C@@H](O)[C@@H]1O [Compound 5, (2R,2,3S,3,4R,4,5S,5,6R,6)-6,6([1,1Biphenyl]-3,4diyl)bis(2-(hydroxymethyl)tetrahydro-2H-pyran-3,4,5-triol)]
Kd [1, 4]: < 5 nM
Kd [1, 5]: < 5 nM
Kd [2]: 49 nM and < 5 nM (2×)
IC50 [3]: 580 nM

OC[C@H]1O[C@H](c2ccc(-c3ccc([C@H]4O[C@H](CO)[C@@H](O)[C@H](O)[C@@H]4O)cc3)cc2)[C@@H](O)[C@@H](O)[C@@H]1O [Compound 6, (2R,2 ,3S,3,4R,4,5S,5,6R,6)-6,6([1,1Biphenyl]-4,4diyl)bis(2-(hydroxymethyl)tetrahydro-2H-pyran-3,4,5-triol)]
Kd [1, 4]: < 5 nM
Kd [1, 5]: < 5 nM
Kd [2]: < 5 nM and 23 nM
IC50 [3]: 95 nM

O=C(NCCCCCCCCNC(=O)c1cccc([C@H]2O[C@H](CO)[C@@H](O)[C@H](O)[C@@H]2O)c1)c1cccc([C@H]2O[C@H](CO)[C@@H](O)[C@H](O)[C@@H]2O)c1 [Compound 14, (R,R,S,R,S)-N,N′-(Octane-1,8-diyl)bis(3-((2R,3S,4R,5S,6R)-3,4,5-trihydroxy-6-(hydroxymethyl)tetrahydro-2H-pyran-2-yl)benzamide)]
Kd [1, 4]: 11 nM and 13 nM
Kd [2]: 43 nM and 6 nM and 14 nM
IC50 [3]: 4100 nM

O=C(Nc1ccc(Cc2ccc(NC(=O)c3cccc([C@H]4O[C@H](CO)[C@@H](O)[C@H](O)[C@@H]4O)c3)cc2)cc1)c1cccc([C@H]2O[C@H](CO)[C@@H](O)[C@H](O)[C@@H]2O)c1 [Compound 16]
Kd [1, 4]: < 5 nM and 6 nM
Kd [2]: 26 nM and < 5 nM and 9 nM
IC50 [3]: 1510 nM

OC[C@H]1O[C@H](CCc2ccc(CC[C@H]3O[C@H](CO)[C@@H](O)[C@H](O)[C@@H]3O)cc2)[C@@H](O)[C@@H](O)[C@@H]1O [Compound 22, ((2R,3S,4R,5S,6R)-2-(Hydroxymethyl)-6-[2-[4-[2-[(2R,3S,4R,5S,6R)-3,4,5-trihydroxy-6-(hydroxymethyl)tetrahydropyran-2-yl]ethyl]phenyl]ethyl]tetrahydropyran-3,4,5-triol)]
Kd [1, 4]: < 5 nM and 12 nM
Kd [2]: 14 nM and < 5 nM and 11 nM
IC50 [3]: 1600 nM

OC[C@H]1O[C@H](CCCC[C@H]2O[C@H](CO)[C@@H](O)[C@H](O)[C@@H]2O)[C@@H](O)[C@@H](O)[C@@H]1O [Compound 23]
Kd [1, 4]: 9 nM and 12 nM
Kd [2]: 25 nM and < 5 nM and 14 nM
IC50 [3]: 5800 nM

OC[C@H]1O[C@H](C/C=C/c2cccc(/C=C/C[C@H]3O[C@H](CO)[C@@H](O)[C@H](O)[C@@H]3O)c2)[C@@H](O)[C@@H](O)[C@@H]1O [Compound 25, ((2R,3S,4R,5S,6R)-2-(Hydroxymethyl)-6-[(E)-3-[3-[(E)-3-[(2R,3S,4R,5S,6R)-3,4,5-trihydroxy-6-(hydroxymethyl)tetrahydropyran-2-yl]prop-1-enyl]phenyl]allyl]tetrahydropyran-3,4,5-triol)]
Kd [1, 4]: < 5 nM
Kd [1, 5]: < 5 nM
Kd [2]: 21 nM and 10 nM and 12 nM
IC50 [3]: 1400 nM

OC[C@H]1O[C@H](CCc2cccc([C@H]3O[C@H](CO)[C@@H](O)[C@H](O)[C@@H]3O)c2)[C@@H](O)[C@@H](O)[C@@H]1O [Compound 37, ((2R,3S,4R,5S,6R)-2-(Hydroxymethyl)-6-[2-[3-[(2R,3S,4R,5S,6R)-3,4,5-trihydroxy-6-(hydroxymethyl)tetrahydropyran-2-yl]phenyl]ethyl]tetrahydropyran-3,4,5-triol)]
Kd [1, 4]: 7 nM
Kd [2]: 18 nM and < 5 nM and 12 nM
IC50 [3]: 1650 nM

OC[C@H]1O[C@H](CCCc2ccc(CCC[C@H]3O[C@H](CO)[C@@H](O)[C@H](O)[C@@H]3O)cc2)[C@@H](O)[C@@H](O)[C@@H]1O [Compound 38, (2R,3S,4R,5S,6R)-2-(hydroxymethyl)-6-[3-[4-[3-[(2R,3S,4R,5S,6R)-3,4,5-trihydroxy-6-(hydroxymethyl)tetrahydropyran-2-yl]propyl]phenyl]propyl]tetrahydropyran-3,4,5-triol]
Kd [1, 4]: < 5 nM
Kd [1, 5]: < 5 nM
Kd [2]: < 5 nM (2×) and 21 nM
IC50 [3]: 410 nM

OC[C@H]1O[C@H](C/C=C/c2cccc(C#C[C@H]3O[C@H](CO)[C@@H](O)[C@H](O)[C@@H]3O)c2)[C@@H](O)[C@@H](O)[C@@H]1O [Compound 40, ((2R,3S,4R,5S,6R)-2-(Hydroxymethyl)-6-[(E)-3-[3-[2-[(2R,3S,4R,5S,6R)-3,4,5-trihydroxy-6-(hydroxymethyl)tetrahydropyran-2-yl]ethynyl]phenyl]allyl]tetrahydropyran-3,4,5-triol)]
Kd [1, 4]: < 5 nM and 18 nM
Kd [2]: 8 nM and 10 nM
IC50 [3]: 43 nM

OC[C@H]1O[C@H](c2cccc(OCCCOc3cccc([C@H]4O[C@H](CO)[C@@H](O)[C@H](O)[C@@H]4O)c3)c2)[C@@H](O)[C@@H](O)[C@@H]1O [Compound 44, ((2R,3S,4R,5S,6R)-2-(Hydroxymethyl)-6-[3-[3-[3-[(2R,3S,4R,5S,6R)-3,4,5-trihydroxy-6-(hydroxymethyl)tetrahydropyran-2-yl]phenoxy]propoxy]phenyl]tetrahydropyran-3,4,5-triol)]
Kd [1, 4]: < 5 nM
Kd [1, 5]: < 5 nM
Kd [2]: 6 nM
IC50 [3]: 480 nM

Source: patent publication US11634447B2 (priority 2012, dated 2023)
